{"source": "patent US20250186489A1", "about": "“REPROGRAMMING OF CELLS TO TYPE 1 CONVENTIONAL DENDRITIC CELLS OR ANTIGEN-PRESENTING CELLS” (Asgard Therapeutics AB, priority 2021, published 2025)", "molecules": {"B1": {"name": "IRF8: transcription factor of the interferon regulatory factor family, SEQ ID NO: 11 (protein, listed as Homo sapiens)", "chain": "MCDRNGGRRLRQWLIEQIDSSMYPGLIWENEEKSMFRIPWKHAGKQDYNQEVDASIFKAWAVFKGKFKEGDKAEPATWKTRLRCALNKSPDFEEVTDRSQLDISEPYKVYRIVPEEEQKCKLGVATAGCVNEVTEMECGRSEIDELIKEPSVDDYMGMIKRSPSPPEACRSQLLPDWWAQQPSTGVPLVTGYTTYDAHHSAFSQMVISFYYGGKLVGQATTTCPEGCRLSLSQPGLPGTKLYGPEGLELVRFPPADAIPSERQRQVTRKLFGHLERGVLLHSSRQGVFVKRLCQGRVFCSGNAVVCKGRPNKLERDEVVVFDTSQFFRELQQFYNSQGRLPDGRVVLCFGEEFPDMAPLRSKLILVQIEQLYVRQLAEEAGKSCGAGSVMQAPEEPPPDQVFRMFPDICASHQRSFFRENQQITV", "modifications": "Human IRF8 isoform 1 (protein sequence)"}, "B2": {"name": "BATF3: nuclear basic leucine zipper transcription factor, SEQ ID NO: 10 (protein, listed as Homo sapiens)", "chain": "MSQGLPAAGSVLQRSVAAPGNQPQPQPQQQSPEDDDRKVRRREKNRVAAQRSRKQTQKADKLHEEYESLEQENTMLRREIGKLTEELKHLTEALKEHEKMCPLLLCPMNFVPVPPRPDPVAGCLPR", "modifications": "Human BATF3 (protein sequence)"}}, "key": {"[1]": {"test_system": "human cancer cell lines", "assay": "Effect of valproic acid on cDC1 reprogramming of human cancer cell lines", "format": "cell-based", "conditions": "VPA from day 1 to day 4, day 9", "experimental": "(§1) Cancer cell lines were transduced with PIB-IRES-EGFP lentiviral particles or EGFP as control, and cultured in the presence or absence of VPA from reprogramming day 1 to day 4, and reprogramming efficiency was quantified by flow cytometry at reprogramming day 9 in live EGFP^+ cells according to the surface expression of CD45^+ and MHC-II or HLA-DR. Reprogrammed cells were then analysed as previously described."}, "[2]": {"test_system": "LLC and B16 cells", "assay": "Effect of valproic acid on reprogramming of mouse cancer cells", "format": "cell-based", "conditions": "for fold enhancement of CD45^+ MHC-II^+ tumour-APC generation: SFFV-PIB-eGFP; for fold enhancement of CD45^+ MHC-II^+ tumour-APC generation / CD45^+ MHC-II^+ tumour-APCs: day 9", "experimental": "as §1"}, "[3]": {"test_system": "B16-OVA cells", "assay": "T cell killing assay of B16-OVA target cells", "format": "cell-based, mouse", "conditions": "low (1:1) T cell to target ratio, 3 days co-culture", "experimental": "CD8^+ T cells from spleen of OT-I mice were enriched using a mouse CD8^+ T cell isolation kit (Miltenyi) according to manufacturer's protocol. 6-well untreated plates were coated with anti-CD3 and anti-CD28 at 2×10^−3 mg mL^−1 for 2 h at 37° C. and washed 3× before 1×10^6 T cells per mL were seeded in complete growth media (RPMI) supplemented with murine IL-2 (Peprotech, 100 U mL-1) and murine IL-12p70 (Peprotech, 2.5×10−3 mg mL-1). After 24 h of activation, T cells were re-seeded at 1×10^6 cells per mL in fresh complete RPMI supplemented with murine IL-2 for 48 h on new untreated plates to allow T cell expansion. MACS-sorted reprogrammed mOrange^+ B16-OVA cells or IFN-γ treated cells were seeded with non-fluorescent B16-OVA (mOrange−) in equal numbers, 24 h before co-culture with T cells. Expanded T cells were added in ratios of 0:1, 1:1, 5:1, 10:1 T cell to target cell. […] For flow cytometry analysis, cells were resuspended and stained for viability (DAPI) and anti-CD3 and measured at indicated time points post co-culture with T cells."}, "[4]": {"test_system": "human embryonic fibroblasts (HEF)", "assay": "cDC1 reprogramming efficiency of human embryonic fibroblasts, flow cytometry for CD45+HLA-DR+ cells at day 9", "format": "cell-based", "conditions": "HEF with Dox-inducible PIB", "experimental": "HEFs, HDFs and Clec9a-tdTomato MEFs were seeded at a density of 40,000 cells per well and MSCs at a density of 50,000 cells per well on 0.1% gelatin coated 6-well plates. On the following day, cells were incubated overnight with either a ratio of 1:1 TetO-PIB and M2rtTA, SFFV-PIB-GFP or SFFV-GFP lentiviral particles in media supplemented with 8 μg/ml polybrene. Cells were transduced overnight twice in consecutive days and media replaced in between. After the second transduction, media was replaced by normal growth media (day 0). When using TetO-PIB, media was supplemented with Dox (1 μg/ml). Media was changed every 2-3 days for the duration of cultures. When stated, media was supplemented with LPS (100 ng/ml, Enzo), Poly I:C (25 μg/ml, InvivoGen) and R848 (3 μg/ml, InvivoGen) overnight. Cytokines were added at day 2 and kept for the duration of cultures; For reprogramming in xeno-free conditions, MSCs were cultured in X-Vivo 15 (Lonza) after transduction and media changed every 2-3 days for the duration of cultures.\nFor the analysis of surface marker expression, human and mouse cells were dissociated and incubated with antibodies diluted in PBS 5% FBS at 4° C. for 30 minutes in the presence of mouse or rat serum (1/100, GeneTex), for human and mouse cells respectively, to block unspecific binding. Cells were washed and resuspended in PBS 5% FBS and analyzed in BD FACSCanto II or BD LSRFortessa flow cytometers (BD Biosciences), unless stated otherwise. DAPI was used for dead cell exclusion. Flow cytometry data were analyzed using FlowJo software (FLOWJO, LLC, version 10.6.1). All flow cytometry analyses were performed in live single cell gates.\nCoding regions of ID2, TXNIP, ZFP36, PLEK, SUB1, JUNB, CREM, KLF4, MXD1, LITAF, IRF7, FOS, NMI, TFEC, SP110, IRF5, STAT2, BATF, ZNF267, IRF1, RELB and BATF2 were individually cloned in the pFUW-TetO plasmid. […] Reprogramming efficiency was evaluated by flow cytometry in HEFs 9 days after transcription factor overexpression.\n17 human hematopoietic cytokines including inflammatory mediators (Table 3) were individually added to the culture media 2 days after PIB induction in HEFs, and reprogramming efficiency was measured at day 9. Changes in reprogramming efficiency were analysed using both single cytokines and combinations of two or three cytokines.\nThe impact on reprogramming efficiency after a combination of cytokine treatment and SFFV-driven PIB induction was evaluated. The scPred system was used for integration with “natural” DCs. See previous Examples for experimental details."}, "[5]": {"test_system": "chromatin", "assay": "ChIP-seq of PU.1, IRF8 and BATF3 in HDFs 48 h after induction", "format": "binding, human", "conditions": "for chromatin binding, number of peaks: factors co-expressed, HDFs, 48 h; for positions shared between the three factors as share of total peaks of the factor: factors expressed together", "experimental": "TFs were delivered with a polycistronic lentiviral vector (pFUW-tetO-PIB) or individual vectors (pFUW-tetO-PU.1, pFUW-tetO-IRF8, or pFUW-tetO-BATF3) with pFUW-M2rtTA. ChIP was performed 48 hours after the addition of Dox.\nChromatin in cultured cells was fixed by adding 1/10 volume of freshly-prepared formaldehyde solution [11% Formaldehyde (Sigma), 0.1M NaCl, 1 mM EDTA and 50 mM HEPES] to each cell suspension in complete DMEM. Tubes were left 15 minutes at room temperature with agitation. Fixation was stopped by adding 1/20 volume of […] Glycine solution (Sigma). After 5 minutes incubation, cells were centrifuged at 800 g for 10 min at 4° C. Cell pellets were resuspended in 10 ml chilled PBS-Igepal, 100 μl PMSF were added to each tube and centrifuged at 800 g for 10 minutes at 4° C. Cell pellets were snap-frozen on dry ice and stored at −80° C. Active Motif (Carlsbad, CA) prepared chromatin, performed ChIP, generated libraries and sequenced libraries. Briefly, chromatin was isolated by adding lysis buffer, followed by disruption with a Dounce homogenizer. Lysates were sonicated and the DNA sheared to an average length of 300-500 bp (Active Motif's EpiShear probe sonicator). Genomic DNA (Input) was prepared by treating aliquots of chromatin with RNase, proteinase K and heat for de-crosslinking, followed by clean up using solid phase reversible immobilization (SPRI) beads (Beckman Coulter) and quantitation by Clariostar (BMG Labtech). Extrapolation to the original chromatin volume allowed determination of total chromatin yield. 30 μg of chromatin was pre-cleared with protein A/G agarose beads (Invitrogen). Immunoprecipitations were performed with 4 μg of antibodies against human PU.1, IRF8 and BATF3 (rabbit anti-human PU.1, rabbit anti-human IRF8 or sheep anti-human BATF3). […] To confirm ChIP enrichment, quantitative PCR (QPCR) reactions were carried out in triplicate on specific genomic regions using SYBR Green Supermix (Bio-Rad). […] After a final PCR amplification step, the resulting DNA libraries were quantified and sequenced on Illumina's NextSeq 500 (75 nt reads, single end).\nChIP-seq analysis was performed on the raw FASTQ files. […] For genome tracks, bigwig files were created from bam files with deeptools (https://deeptools.readthedocs.io/en/develop/) and explored using the UCSC Genome Browser. For Chromatin State Fold-Enrichment analysis, enrichment scores for genomic features, such as PU.1, IRF8 and BATF3 ChIP-seq peaks and histone marks were calculated using ChromHMM Overlap Enrichment (http://compbio.mit.edu/ChromHMM/). […] Enrichment scores were calculated as the ratio between the observed and the expected overlap for each feature and chromatin state based on their sizes and the size of the human genome. […]"}}}
{"molecule": "CCCC(CCC)C(=O)O", "note": "[VPA, valproic acid]", "values": [{"measurement": "reprogramming efficiency in human cancer cells", "setting": "[1]", "value": "increased reprogramming efficiency in all tested lines"}, {"measurement": "fold enhancement of CD45^+ MHC-II^+ tumour-APC generation", "setting": "[2]; B16 cells", "value": "~5", "unit": "fold"}, {"measurement": "CD45^+ MHC-II^+ tumour-APCs", "setting": "[2]; B16 cells, 5.9±4.8% without VPA", "value": "29.9±19.3", "unit": "%"}, {"measurement": "MHC-I in transduced cells", "setting": "[2]; LLC and B16 cells transduced with PIB", "value": "upregulate MHC-I"}, {"measurement": "fold enhancement of CD45^+ MHC-II^+ tumour-APC generation", "setting": "[2]; LLC cells", "value": "~3", "unit": "fold"}, {"measurement": "CD45^+ MHC-II^+ tumour-APCs", "setting": "[2]; LLC cells, 15.8±4.79% without VPA", "value": "45.9±25.5", "unit": "%"}, {"measurement": "antigen presentation function of tumour-APCs generated in the presence of VPA", "setting": "[2]; LLC-OVA and B16-OVA cells, OT-I CD8^+ T cells", "value": "presented endogenous antigens to OT-I CD8^+ T cells"}]}
{"molecule": "IFN-γ: cytokine", "values": [{"measurement": "target cells killed by T cells", "setting": "[3]", "value": "12.31±7.1", "unit": "%"}, {"measurement": "fold increase in reprogramming efficiency versus condition without cytokines", "setting": "[4]", "value": 20, "unit": "fold"}, {"measurement": "CD45^+ HLA-DR^+ cell generation (hiDCs)", "setting": "[4]; cytokine added 2 days after induction, 0.4%±0.2% without cytokines", "value": "7.9%±2.2%"}]}
{"molecule": "B1", "values": [{"measurement": "chromatin binding, number of peaks", "setting": "[5]", "value": "18,962 peaks"}, {"measurement": "positions shared between the three factors as share of total peaks of the factor", "setting": "[5]", "value": 28, "unit": "%"}]}
{"molecule": "B2", "values": [{"measurement": "chromatin binding, number of peaks", "setting": "[5]", "value": "11,505 peaks"}, {"measurement": "positions shared between the three factors as share of total peaks of the factor", "setting": "[5]", "value": 47, "unit": "%"}]}
